# From publication PMC7883042 (Peptide Science (Hoboken, N.j.), 2021)
# Where “and” joins values, the source holds several entries; their conditions need not be identical. Equal values may be shown once. Bridge positions count the residues as written; N and C are the ends. Square brackets hold non-standard residues; d marks the D form. Peptide text beside a SMILES is read from it. R8 = C=CCCCCCC[C@@](C)(N)C(=O)O; S5 = C=CCCC[C@](C)(N)C(=O)O
# Tests used:
# circular dichroism = details: PBS; pH 7.4; rt °C; 100 uM
# [1] = test system: SARS‐CoV‐2 spike (Wuhan‐Hu‐1 strain) pseudovirus with HIV core, entry into 293 T ACE2 expressing cells; assay type: cell-based
# [2] = assay type: physicochemical; details: pH 7.4
Molecule,helicity (circular dichroism),% Helicity [2],also measured
CC(=O)N[C@H](C(=O)N[C@@]1(C)CCCC=CCCC[C@@](C)(C(=O)N[C@@H](CC(N)=O)C(=O)N[C@@H](Cc2c[nH]cn2)C(=O)N[C@@H](CCC(=O)O)C(=O)N[C@@H](C)C(=O)N[C@@H](CCC(=O)O)C(=O)N[C@@H](CC(=O)O)C(=O)N[C@@H](CC(C)C)C(N)=O)NC(=O)[C@H](CCCCN)NC(=O)[C@H](CC(=O)O)NC(=O)[C@H](CC(C)C)NC1=O)[C@@H](C)O,21%,–,–
CC(=O)N[C@@H](Cc1c[nH]cn1)C(=O)N[C@@H](CCC(=O)O)C(=O)N[C@@]1(C)CCCC=CCCC[C@@](C)(C(=O)N[C@@H](Cc2ccc(O)cc2)C(=O)N[C@@H](CCC(N)=O)C(=O)N[C@@H](CO)C(N)=O)NC(=O)[C@H](CC(C)C)NC(=O)[C@H](CC(=O)O)NC(=O)[C@H](CCC(=O)O)NC1=O (Ac-HE[S5]EDL[S5]YQS-NH2; staple 3-7),33.4%,–,–
CC[C@H](C)[C@H](NC(C)=O)C(=O)N[C@@H](CCC(=O)O)C(=O)N[C@@H](CCC(=O)O)C(=O)N[C@@H](CCC(N)=O)C(=O)N[C@]1(C)CCCCCC/C=C/CCC[C@@](C)(C(=O)N[C@@H](CC(N)=O)C(=O)N[C@@H](Cc2c[nH]cn2)C(=O)N[C@@H](CCC(=O)O)C(N)=O)NC(=O)[C@H](CCCCN)NC(=O)[C@H](CC(=O)O)NC(=O)[C@H](CC(C)C)NC(=O)[C@H](Cc2ccccc2)NC(=O)[C@H]([C@@H](C)O)NC(=O)[C@H](CCCCN)NC1=O (Ac-IEEQ[R8]KTFLDK[S5]NHE-NH2; staple (E) 5-12),12.2%,–,–
CC(=O)N[C@H](C(=O)N[C@@H](Cc1ccccc1)C(=O)N[C@]1(C)CCCCCC/C=C/CCC[C@@](C)(C(=O)N[C@@H](CCC(=O)O)C(=O)N[C@@H](CC(=O)O)C(=O)N[C@@H](CC(C)C)C(N)=O)NC(=O)[C@H](CCC(=O)O)NC(=O)[C@H](Cc2c[nH]cn2)NC(=O)[C@H](CC(N)=O)NC(=O)[C@H](Cc2ccccc2)NC(=O)[C@H](CCCCN)NC(=O)[C@H](CC(=O)O)NC1=O)[C@@H](C)O (Ac-TF[R8]DKFNHE[S5]EDL-NH2; staple (E) 3-10),16.1%,–,–
Ac-FHTSEYDEQNEIEAAQLFKDFLK-NH2 [Scrambled negative control],–,–,inhibition of viral entry [1]: None of these compounds including stapled peptide 8 inhibited viral entry
Ac-HEAEDLFYQS-NH2,5.9%,–,–
Ac-HEAEDLFYQS-NH2 [Peptide 9],–,5.9%,–
Ac-IEEQAKTFLDKFNHE-NH2,9.6%,–,–
Ac-IEEQAKTFLDKFNHE-NH2 [Peptide 11],–,9.6%,–
Ac-IEEQAKTFLDKFNHER8EDLFYQS5-NH2 (sidechain bridge or staple) [Peptide 8],–,72% and 72.2%,inhibition of viral entry [1]: None of these compounds including stapled peptide 8 inhibited viral entry
Ac-IEEQAKTFLDKFR8HEAEDLS5YQS-NH2 (sidechain bridge or staple) [Peptide 7],–,54.5%,–
Ac-IEEQAKTFLDKR8NHEAEDS5FYQS-NH2 (sidechain bridge or staple) [Peptide 6],–,23.5%,–
Ac-IEEQAKTFR8DKFNHES5EDLFYQS-NH2 (sidechain bridge or staple) [Peptide 5],–,31.3%,–
Ac-IEEQAR8TFLDKFS5HEAEDLFYQS-NH2 (sidechain bridge or staple) [Peptide 4],–,57.9%,–
Ac-IEEQR8KTFLDKS5NHE-NH2 (sidechain bridge or staple) [Peptide 12],–,12.2%,–
Ac-IEEQR8KTFLDKS5NHEAEDLFYQS-NH2 (sidechain bridge or staple) [Peptide 3],–,55.6%,–
Ac-IR8EQAKTFS5LKFNHEAEDLFYQS-NH2 (sidechain bridge or staple) [Peptide 2],–,35.4%,–
Ac-TFLDKFNHEAEDL-NH2,8.6%,–,–
Ac-TFLDKFNHEAEDL-NH2 [Peptide 13],–,8.6%,–
Ac-TFR8DKFNHES5EDL-NH2 (sidechain bridge or staple) [Peptide 14],–,16.1%,–
Ac-TS5LDKS5NHEAEDL-NH2 (sidechain bridge or staple) [Peptide 15],–,21.0%,–
IEEQAKR8FLDKFNS5EAEDLFYQS (sidechain bridge or staple) [Stapled negative control],–,–,inhibition of viral entry [1]: None of these compounds including stapled peptide 8 inhibited viral entry
